Measured values published in US20100226597A1, “BORTEZOMIB AND PROCESS FOR PRODUCING SAME” (DR. REDDY'S LABORATORIES LIMITED, priority 2007, published 2010).
Entries after “also recorded” stand apart in the source; their conditions may differ.

Columns and labels:
[1] = Stability study of Bortezomib stored under general storage conditions (sealed polymeric bag, 25° C. and 60% RH), purity by HPLC; type: physicochemical
Protocol: (§1) HPLC measurements of Bortezomib samples for chemical purity were performed using Waters system, equipped with Waters symmetry shield RP-18, 250X4.6 mm ID, 5 μm, particle size and a UV detector operated on 270 nm. Analyses were performed using the following mobile phase, at flow rate of 1.0 ml/minute, run time 55 minutes. Mobile phase A: Mix 700 ml water, 300 ml Acetonitrile and 1 ml formic acid, filter and degas. Mobile phase B: Mix 800 ml Acetonitrile, 200 ml water and 1 ml formic acid, filter and degas. Elution: Gradient program

[2] = Stability study of aqueous solution of Bortezomib in basic medium (pH ~10.5), purity by HPLC
Protocol: A small quantity was taken from solution after 1 hours, 2 hours and 3 hours and the purity was checked by HPLC and compared to the original HPLC chromatogram of initial sample (immediately after adjusting the pH). The purity of each sample was obtained as % area by the HPLC chromatogram and compared to the initial purity value.
as §1

[3] = Stability study of Bortezomib in the exemplary storage system of the invention (two polybags with external desiccant), purity by HPLC; conditions: for Initial purity: % area by HPLC
Protocol: Two different samples of Bortezomib were stored at a storage condition of 2-8° C. and 25° C., 60% relative humidity (RH) in a storage system (packed in one Polybags having a thickness about 0.10 mm followed by repacking in another polybag having thickness of about 0.10 mm and containing external desiccant). A small quantity was taken from each sample after 15 days, 1 month (30th day), 2 months (60th day) and 3 months (90th day) and the purity was checked by HPLC and compared to the original HPLC chromatogram of each sample (before starting the storage period). The chemical purity of each sample was obtained as % area by the HPLC chromatogram and compared to the initial purity value (before starting the storage period).
as §1

[4] = 7th day, general storage conditions
[5] = 15th day, general storage conditions
[6] = 30th day, general storage conditions
[7] = initial, general storage conditions
[8] = after 1 hour, aqueous solution, pH ~10.5, 25 to 35° C.
[9] = after 2 hours, aqueous solution, pH ~10.5, 25 to 35° C.
[10] = after 3 hours, aqueous solution, pH ~10.5, 25 to 35° C.
[11] = initial, aqueous solution, pH ~10.5, 25 to 35° C.
[12] = stored at 2-8° C. in packaging of the invention, sample from methanol/water (Form A)
[13] = stored at 25° C. and 60% RH in packaging of the invention, sample from ethylacetate

CC(C)C[C@H](NC(=O)[C@H](Cc1ccccc1)NC(=O)c1cnccn1)B(O)O [Bortezomib, [(1R)-3-methyl-1-[[(2S)-1-oxo-3-phenyl-2-[(pyrazinylcarbonyl)amino]propyl]amino]butyl]boronic acid]
Impurity-a content on 7th day [1, 4]: 0.06% | Impurity-b (RR and SS diastereomers) content on 7th day [1, 4]: 0.33% | Bortezomib purity by HPLC, Purity on 7th day ([1]; 7th day, general storage conditions, sample from ethylacetate): 99.34% | Impurity-a content on 15th day [1, 5]: 0.08% | Impurity-b (RR and SS diastereomers) content on 15th day [1, 5]: 0.35% | Bortezomib purity by HPLC, Purity on 15th day ([1]; 15th day, general storage conditions, sample from ethylacetate): 98.92% | Impurity-a content on 30th day [1, 6]: 0.18% | Impurity-b (RR and SS diastereomers) content on 30th day [1, 6]: 0.39% | Bortezomib purity by HPLC, Purity on 30th day ([1]; 30th day, general storage conditions, sample from ethylacetate): 97.22% | Impurity-a content, Initial [1, 7]: 0.06% | Impurity-b (RR and SS diastereomers) content, Initial [1, 7]: 0.36% | Bortezomib purity by HPLC, Initial purity ([1]; initial, general storage conditions, sample from ethylacetate): 99.49% | Storage stability in words ([1]; sealed polymeric bag without desiccants, normal temperature): unstable; also recorded: substantial degradation of product | Chemical Purity by HPLC, After 1 hour [2, 8]: 98.24% | Impurity-a content, After 1 hour [2, 8]: 0.8924% | Impurity-b (RR and SS diastereomers) content, After 1 hour [2, 8]: 0.4005% | Chemical Purity by HPLC, After 2 hour [2, 9]: 98.01% | Impurity-a content, After 2 hour [2, 9]: 0.9587% | Impurity-b (RR and SS diastereomers) content, After 2 hour [2, 9]: 0.4746% | Chemical Purity by HPLC, After 3 hours [2, 10]: 97.77% | Impurity-a content, After 3 hours [2, 10]: 1.0229% | Impurity-b (RR and SS diastereomers) content, After 3 hours [2, 10]: 0.5418% | Stability in aqueous basic solution in words ([2]; aqueous solution maintained under stirring in a basic medium): decrease the purity; also recorded: purity of the compound decreased continually | Chemical Purity by HPLC, Initial ([2]; initial (immediately after adjusting the pH), aqueous solution, pH ~10.5 (2N NaOH), 25 to 35° C.): 98.61% | Impurity-a content, Initial [2, 11]: 0.7899% | Impurity-b (RR and SS diastereomers) content, Initial [2, 11]: 0.2991% | Purity on 15th day [3, 12]: 99.59% | Purity on 15th day [3, 13]: 99.56% | Purity on 30th day [3, 12]: 99.59% | Purity on 30th day [3, 13]: 99.60% | Purity on 60th day [3, 12]: 99.65% | Purity on 60th day [3, 13]: 99.63% | Purity on 90th day [3, 12]: 99.66% | Purity on 90th day [3, 13]: 99.54% | Initial purity [3, 12]: 99.60% | Initial purity [3, 13]: 99.58% | Storage stability in words ([3]; packaging conditions of the invention, prolonged storage periods): can be stabilized while retaining its purity content over prolonged storage periods
